The source of these data is PubChem BioAssay (NCI).

Test systems include SK-MEL-28 melanoma; M14 melanoma; UACC-257 melanoma; SF-295 CNS; SK-OV-3 ovarian; HL-60(TB) leukemia; HCT-116 colon; HCT-15 colon; A498 renal; BT-549 breast.
What all share (experiment): inhibition of tumour cell growth, NCI panel, 48 h

Structures are written as SMILES.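 Cells were grown in 96-well plates and exposed to each compound for 48 hours at five concentrations; endpoints were interpolated linearly between bracketing concentrations, or set to the highest concentration if not reached. GI50 marks 50% less growth. TGI: concentration producing complete growth inhibition.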 A value given as a limit tells only on which side of the number the result lay.

For the compound `COC(=O)[C@@H]1CSC(=S)N1C(=O)C[C@H]1CC=CC[C@H]1CC(=O)Sc1ccccc1`, the TGI was found to be 32.1 µM in the assay with SK-MEL-28 melanoma; 32.4 µM in the assay on M14 melanoma; 35.9 µM in the assay on UACC-257 melanoma; 45.3 µM in the assay on SF-295 CNS; 50 µM in the assay with SK-OV-3 ovarian; 14 µM in the assay on HL-60(TB) leukemia. Moreover, the TGI in the assay with HCT-116 colon was 30.8 µM; in the assay on HCT-15 colon, 32.3 µM.

As to `CN1CCc2c1nc(-c1ccccc1)c1c2N(C)CC1`, the TGI in the assay on M14 melanoma, in the assay with UACC-257 melanoma, with SF-295 CNS, in the assay with SK-OV-3 ovarian, in the assay with HL-60(TB) leukemia and with HCT-116 colon was above 100 µM each time. Further, the TGI in the assay on HCT-15 colon and in the assay on A498 renal was above 100 µM in each case.

For the compound `NCC1(N2CCOCC2)C2CCCC21CO` (configuration not stated), the TGI with SK-MEL-28 melanoma, in the assay on M14 melanoma, with UACC-257 melanoma, with SF-295 CNS, in the assay with SK-OV-3 ovarian and in the assay on HL-60(TB) leukemia was above 100 µM in each case. Further, the TGI with HCT-116 colon and in the assay on HCT-15 colon was above 100 µM throughout.

Turning to `CS(=O)(=O)CC1=Nc2nnc(CCCCCCCc3nnc4n3C(=O)C(CS(C)(=O)=O)=N4)n2C1=O`, the TGI with SK-MEL-28 melanoma, in the assay with M14 melanoma, in the assay on UACC-257 melanoma, with SF-295 CNS, in the assay with SK-OV-3 ovarian and in the assay with HL-60(TB) leukemia was above 100 µM each time. Also, the TGI in the assay on HCT-116 colon, in the assay with HCT-15 colon and in the assay on A498 renal was above 100 µM throughout.

Take `CC(=O)[O][Pb]([O]C(C)=O)([c]1ccccc1)[c]1ccccc1`: the GI50 is 6.72 µM in the assay on SK-MEL-28 melanoma; above 48 µM with M14 melanoma; 6.88 µM in the assay with UACC-257 melanoma; 46.6 µM with SF-295 CNS; 28.1 µM in the assay on SK-OV-3 ovarian; above 100 µM with HL-60(TB) leukemia. In addition, the GI50 is 4.81 µM with HCT-116 colon, 7.06 µM in the assay on HCT-15 colon and 23.4 µM in the assay on A498 renal. Further, the TGI with SK-MEL-28 melanoma, in the assay on M14 melanoma, in the assay on UACC-257 melanoma, with SF-295 CNS, in the assay on SK-OV-3 ovarian and with HL-60(TB) leukemia was above 100 µM each time. In addition, the TGI was above 59.1 µM in the assay with HCT-116 colon, above 100 µM in the assay with HCT-15 colon and above 100 µM with A498 renal.

Take `COC12C=CC(CC1)c1c(O)ccc(O)c12` (configuration not stated): the TGI in the assay with SK-MEL-28 melanoma was above 100 µM; in the assay on M14 melanoma, above 100 µM; with UACC-257 melanoma it was above 100 µM; in the assay with SF-295 CNS, above 100 µM; in the assay with SK-OV-3 ovarian it was above 100 µM; with HL-60(TB) leukemia, 41.6 µM. The TGI is above 100 µM in the assay with HCT-116 colon, above 55.9 µM in the assay with HCT-15 colon and above 100 µM with A498 renal.

In the case of `CC1(C)CCC2(C(=O)OC3OC(CO)C(O)C(O)C3O)CC[C@]3(C)C(=CCC4C5(C)CC[C@H](OC6OC(C(=O)O)C(O)C(O)C6O)C(C)(C)C5CCC43C)C2C1` (some centres not stated), the GI50 was 2.6 µM in the assay on SK-MEL-28 melanoma; 1.47 µM with M14 melanoma; 4.18 µM in the assay on UACC-257 melanoma; 2.56 µM in the assay on SF-295 CNS; 1.22 µM in the assay on HL-60(TB) leukemia; 1.12 µM with HCT-116 colon. In addition, the GI50 in the assay on HCT-15 colon is 6.73 µM; with BT-549 breast it was 1.7 µM. In addition, the TGI in the assay on SK-MEL-28 melanoma is 12.2 µM; in the assay on M14 melanoma, 4.33 µM; in the assay with UACC-257 melanoma, 15.4 µM; with SF-295 CNS, above 50 µM; in the assay with HL-60(TB) leukemia it was 3.45 µM; in the assay on HCT-116 colon, 2.38 µM. For the same compound, the TGI in the assay on HCT-15 colon is 13.3 µM; with BT-549 breast, 25.8 µM.

Consider `COC(=O)c1[nH]c(=S)[nH]c(=O)c1-c1ccc(Cl)cc1`, for which the TGI in the assay on SK-MEL-28 melanoma, with M14 melanoma, with UACC-257 melanoma, in the assay with SF-295 CNS, in the assay on SK-OV-3 ovarian and in the assay on HL-60(TB) leukemia was above 50 µM in each case. Further, the TGI with HCT-116 colon, in the assay on HCT-15 colon and in the assay on A498 renal was above 50 µM throughout.

In the case of `O=C(CCn1[nH]c(=O)c(Cl)c(Cl)c1=O)NOCCCc1ccccc1`, the TGI in the assay with SK-MEL-28 melanoma, in the assay on M14 melanoma, with UACC-257 melanoma, with SF-295 CNS, in the assay with HL-60(TB) leukemia and with HCT-116 colon was above 100 µM each time. Further, the TGI in the assay on HCT-15 colon and in the assay with A498 renal was above 100 µM each time.

`COc1ccccc1[N-]C(C1=C([O-])c2ccccc2C1=O)c1ccccc1.COc1ccccc1[N-]C(C1=C([O-])c2ccccc2C1=O)c1ccccc1.[Cu+2]` (configuration not stated): the GI50 in the assay with SK-MEL-28 melanoma is 16.2 µM; in the assay on M14 melanoma it was 4.58 µM; with UACC-257 melanoma, 12.9 µM; in the assay on SF-295 CNS it was 5.33 µM; with SK-OV-3 ovarian, 2.09 µM; in the assay with HL-60(TB) leukemia, 3.25 µM. Also, the GI50 is 3.26 µM in the assay on HCT-116 colon, 6.51 µM in the assay with HCT-15 colon and 14.7 µM in the assay with A498 renal. The TGI was above 100 µM with SK-MEL-28 melanoma; above 100 µM with M14 melanoma; above 100 µM in the assay with UACC-257 melanoma; above 100 µM with SF-295 CNS; 6.57 µM in the assay with SK-OV-3 ovarian; above 100 µM with HL-60(TB) leukemia. Further, the TGI in the assay on HCT-116 colon was above 100 µM; with HCT-15 colon, above 100 µM; in the assay with A498 renal it was 53.7 µM.

`O=C(CC1Sc2ccccc2NC1=O)Nc1cc(Cl)ccc1Cl` (configuration not stated): the TGI in the assay with SK-MEL-28 melanoma, with M14 melanoma, with UACC-257 melanoma, in the assay on SF-295 CNS, in the assay with HL-60(TB) leukemia and with HCT-116 colon was above 100 µM in each case. Besides, the TGI in the assay on HCT-15 colon and in the assay on A498 renal was above 100 µM throughout.

`CC(=O)/C(=C\c1ccco1)C(=O)Nc1ccccc1`: the TGI in the assay on SK-MEL-28 melanoma, in the assay with M14 melanoma, in the assay with UACC-257 melanoma, with SF-295 CNS, in the assay with SK-OV-3 ovarian and in the assay with HL-60(TB) leukemia was above 100 µM in each case. The TGI in the assay with HCT-116 colon and in the assay with HCT-15 colon was above 100 µM throughout.
